Experimental data from ChEMBL document CHEMBL5223142, “Identification of potent and selective inhibitors of PKR via virtual screening and traditional design” (Bioorg Med Chem Lett, 2023).

Experiments:
[1] = target: T1, Interferon-induced, double-stranded RNA-activated protein kinase (Homo sapiens, UniProt P19525); experiment: Inhibition of PKR (unknown origin)
[2] = target: T1, Interferon-induced, double-stranded RNA-activated protein kinase; experiment: Inhibition of GST tagged human PKR incubated for 10 mins in presence of ATP by Kinase Glo luminescence assay

T1 sequence (P19525 whole entry): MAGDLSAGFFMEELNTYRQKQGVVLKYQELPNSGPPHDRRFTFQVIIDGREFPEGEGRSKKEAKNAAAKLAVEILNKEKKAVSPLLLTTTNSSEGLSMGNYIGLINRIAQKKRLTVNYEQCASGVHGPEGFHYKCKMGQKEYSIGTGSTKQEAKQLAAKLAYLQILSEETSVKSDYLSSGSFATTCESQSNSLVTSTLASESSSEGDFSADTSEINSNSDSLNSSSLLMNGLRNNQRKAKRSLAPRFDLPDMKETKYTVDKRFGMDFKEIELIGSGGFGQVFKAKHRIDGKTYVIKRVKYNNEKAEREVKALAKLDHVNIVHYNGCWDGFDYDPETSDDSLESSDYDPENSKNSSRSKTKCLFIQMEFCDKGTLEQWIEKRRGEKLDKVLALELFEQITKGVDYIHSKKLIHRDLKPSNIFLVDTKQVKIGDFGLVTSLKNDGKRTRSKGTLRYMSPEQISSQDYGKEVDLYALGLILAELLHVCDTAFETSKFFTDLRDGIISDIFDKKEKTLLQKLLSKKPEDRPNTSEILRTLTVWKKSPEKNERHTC

Compound	IC50 [1] [µM]	other results
COCCO[C@H]1CC[C@H](n2nc(-c3ccc(Nc4nc5cc(Cl)cc(F)c5o4)cc3)c3c(N)ncnc32)CC1	0.364	
Nc1ncc(-c2nnn(CCCO)n2)cc1-c1cc2cc(NC(=O)Nc3ccc(Cl)c(C(F)(F)F)c3)ccc2o1		IC50 [2]: 0.475 µM
CCc1ccc(OC(F)(F)F)cc1CC(=O)N1CCc2cc(-c3cn(CC)c4ncnc(N)c34)ccc21		EC50 [1]: 0.037 µM
CCc1ccc(OC(F)(F)F)cc1CC(=O)N1CCc2cc(-c3nn(CC)c4ncnc(N)c34)ccc21		EC50 [1]: 0.095 µM

Continued, in another order:

IC50 [1] [µM]	Compound	other results
0.116	CCn1cc(-c2ccc3c(c2)CCN3C(=O)Cc2cccc(OC(F)(F)F)c2)c2c(N)ncnc21	
0.306	CC(=O)Cn1cc(-c2cnc(N)c3c(-c4ccc(NC(=O)Nc5cccc(C)c5)cc4)csc23)cn1	
3.88	O=C(Nc1cc(-c2ccccc2)[nH]n1)c1ccc(N2CCNC2=O)cc1	
